Assay: Accelerated blood clearance (ABC) effect, hEPO serum PK after multiple LNP injections (ELISA)
Assay type: in vivo, C57BL/6J mice
Settings: PCB-LNP containing the lipid; intravenous, 5 μg mRNA; third injection; compared to MC3 formulations
Method: Accelerated blood clearance (ABC) effect has been reported in cases where LNPs were injected multiple times with rapid clearance of LNPs observed in the subsequent injections. […] In this example, PCB-LNP containing ZW-B-CBn from Example 7 were used to study the ABC effect of LNPs. MC3-based PEG-LNP from Example 2 was used as a control.
For in vivo pharmacokinetic (PK) study, male C57BL/6J mice aged 3-4 weeks in groups of three were administered intravenously with mRNA-LNP at a dosage of 5 μg of mRNA. Two different injection cohorts were performed. (FIG. 15a) In cohort 1, only one dose of hEPO-mRNA (human erythropoietin mRNA) was given. In cohort 2, Fluc-mRNA ([…]) was dosed for the first two injections, and hEPO-mRNA for the last injection. (FIG. 15a) Cohort 2 was designed in a way to eliminate anti-hEPO immune response induced from first two injections, and thereby the PK profile of hEPO in the third injection is mainly indicating the ABC effect due to LNP components. To determine the PK profile of hEPO, mice sera were collected at 6-hour, 24-hour post-injection, and analyzed using ELISA (DuoSet, hEPO ELISA kit, R&D).

Structure (SMILES)	ABC effect (hEPO serum concentration, injection cohort 2 versus cohort 1)
CCCCCCCCCOC(=O)CCCCCCCN(CCCCCCCC(=O)OC(CCCCCCCC)CCCCCCCCC)CC(=O)O (centres unmarked) [ZW-B-CB1, N-(8-(nonyloxy)-8-oxooctyl)-N-(8-(octadecan-9-yloxy)-8-oxooctyl)glycine]	less ABC effect
CCCCCCCCCOC(=O)CCCCCCCN(CCCCCCCC(=O)OC(CCCCCCCC)CCCCCCCCC)CCC(=O)O (centres unmarked) [ZW-B-CB2, 3-((8-(nonyloxy)-8-oxooctyl)(8-(octadecan-9-yloxy)-8-oxooctyl)amino)propanoic acid]	less ABC effect

From US20240307309A1, “ZWITTERIONIC LIPID NANOPARTICLE COMPOSITIONS, AND METHODS OF USE” (CORNELL UNIVERSITY, priority 2020, published 2024)
